Our source for the IC50 values is patent publication US20210070748A1, “INHIBITORS OF BRUTONS TYROSINE KINASE” (Pharmacyclics LLC, priority 2015, published 2021).

Assay type in all cases: biochemical
One test addresses T1, BTK-WT (Homo sapiens, UniProt Q06187).
T1 construct: purified from insect cells as a full-length construct containing an N-terminal 6X-His tag; His6 (N); made in house; host or cells: insect cells (baculovirus Sf21 in Method B)
Description: Btk in vitro inhibitory activity (one of Method A TR-FRET, Method B electrophoretic mobility shift, Method C radiometric filter binding). The conditions noted are these: D-compounds panel data; read-out: IC50 BTK-WT. A general note: Mobility shift assays separate free from complexed probe on a gel.

A further test deals with EGFR (Homo sapiens, UniProt P00533). As to the kind of experiment: Inhibition of a panel of kinases, in vitro HotSpot kinase assay: EGFR. The following applies: D-compounds panel data; 1 μM ATP. On the procedure: (§1) The degree of inhibition of a panel of kinases is determined using the in vitro HotSpot kinase assay (purified enzymes, ^33P-ATP, an appropriate substrate and 1 μM ATP).
EGFR, sequence (P00533 25-1210): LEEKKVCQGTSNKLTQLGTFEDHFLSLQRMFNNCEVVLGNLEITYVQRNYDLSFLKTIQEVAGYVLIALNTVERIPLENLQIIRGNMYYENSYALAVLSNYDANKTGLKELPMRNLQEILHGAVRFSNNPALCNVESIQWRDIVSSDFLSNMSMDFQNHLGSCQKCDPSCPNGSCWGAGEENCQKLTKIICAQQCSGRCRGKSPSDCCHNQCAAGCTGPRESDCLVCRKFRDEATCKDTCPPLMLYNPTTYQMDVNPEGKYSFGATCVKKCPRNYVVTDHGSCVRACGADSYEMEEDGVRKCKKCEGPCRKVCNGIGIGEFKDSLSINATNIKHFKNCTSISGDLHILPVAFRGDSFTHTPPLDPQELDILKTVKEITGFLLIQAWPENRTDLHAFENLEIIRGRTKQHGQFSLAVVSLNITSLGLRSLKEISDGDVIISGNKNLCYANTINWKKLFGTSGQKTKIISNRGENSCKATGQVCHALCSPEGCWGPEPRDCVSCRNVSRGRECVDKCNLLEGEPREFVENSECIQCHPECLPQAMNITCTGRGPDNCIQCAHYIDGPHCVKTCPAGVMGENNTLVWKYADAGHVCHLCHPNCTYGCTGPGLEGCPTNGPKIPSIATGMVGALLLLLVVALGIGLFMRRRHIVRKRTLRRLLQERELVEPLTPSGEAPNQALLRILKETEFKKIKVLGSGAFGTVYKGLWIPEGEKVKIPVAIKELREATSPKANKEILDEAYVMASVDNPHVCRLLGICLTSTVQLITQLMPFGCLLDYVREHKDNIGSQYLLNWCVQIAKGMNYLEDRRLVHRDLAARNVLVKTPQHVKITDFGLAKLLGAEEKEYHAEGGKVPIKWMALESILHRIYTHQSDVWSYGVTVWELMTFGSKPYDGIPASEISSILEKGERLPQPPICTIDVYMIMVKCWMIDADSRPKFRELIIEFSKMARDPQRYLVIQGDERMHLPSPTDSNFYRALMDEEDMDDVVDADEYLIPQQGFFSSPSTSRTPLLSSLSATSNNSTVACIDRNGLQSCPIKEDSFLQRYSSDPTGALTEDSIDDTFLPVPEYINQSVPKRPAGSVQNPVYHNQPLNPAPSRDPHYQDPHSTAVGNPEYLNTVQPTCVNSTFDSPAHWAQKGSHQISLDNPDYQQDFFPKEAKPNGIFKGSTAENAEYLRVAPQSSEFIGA

The target in a further test is T2, JAK3 (Homo sapiens, UniProt P52333).
T2 sequence (P52333 1-1124): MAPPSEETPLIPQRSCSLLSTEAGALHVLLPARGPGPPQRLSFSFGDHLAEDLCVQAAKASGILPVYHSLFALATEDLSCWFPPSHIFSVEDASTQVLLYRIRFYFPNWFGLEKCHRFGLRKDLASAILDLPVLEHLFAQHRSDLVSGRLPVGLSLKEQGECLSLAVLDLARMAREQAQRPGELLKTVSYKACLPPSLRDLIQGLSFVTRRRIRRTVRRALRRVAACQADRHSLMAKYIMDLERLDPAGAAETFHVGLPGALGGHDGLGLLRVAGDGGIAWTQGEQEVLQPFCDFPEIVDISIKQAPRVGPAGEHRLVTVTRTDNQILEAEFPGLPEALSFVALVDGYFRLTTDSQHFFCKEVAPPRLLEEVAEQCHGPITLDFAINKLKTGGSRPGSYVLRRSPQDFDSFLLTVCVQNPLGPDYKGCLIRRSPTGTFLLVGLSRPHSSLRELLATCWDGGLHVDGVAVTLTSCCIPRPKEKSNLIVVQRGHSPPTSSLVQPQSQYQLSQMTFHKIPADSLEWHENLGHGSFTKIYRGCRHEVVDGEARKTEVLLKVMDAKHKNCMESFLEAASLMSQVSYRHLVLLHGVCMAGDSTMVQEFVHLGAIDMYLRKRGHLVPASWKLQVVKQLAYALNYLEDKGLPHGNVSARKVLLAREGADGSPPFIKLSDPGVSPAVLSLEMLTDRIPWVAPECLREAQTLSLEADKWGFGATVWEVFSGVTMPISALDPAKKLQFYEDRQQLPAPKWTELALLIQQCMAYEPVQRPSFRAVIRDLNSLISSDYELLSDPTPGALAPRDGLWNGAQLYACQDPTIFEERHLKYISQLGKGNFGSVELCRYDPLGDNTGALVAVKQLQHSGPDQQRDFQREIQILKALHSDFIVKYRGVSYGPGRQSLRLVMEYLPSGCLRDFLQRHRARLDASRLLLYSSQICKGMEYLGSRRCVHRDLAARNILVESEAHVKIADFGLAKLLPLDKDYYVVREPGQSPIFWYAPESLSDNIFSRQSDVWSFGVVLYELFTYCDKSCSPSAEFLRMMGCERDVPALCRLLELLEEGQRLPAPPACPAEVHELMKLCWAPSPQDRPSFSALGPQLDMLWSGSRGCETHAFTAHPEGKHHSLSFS
As to the kind of experiment: Inhibition of a panel of kinases, in vitro HotSpot kinase assay: JAK3. The conditions noted are these: D-compounds panel data; 1 μM ATP; read-out: IC50 JAK3.

Another test has as its target SRC (Homo sapiens, UniProt P12931). As to the kind of experiment: Inhibition of a panel of kinases, in vitro HotSpot kinase assay: SRC. The conditions noted are these: D-compounds panel data; 1 μM ATP. Here is the method:
as §1

SRC, sequence (P12931 whole entry): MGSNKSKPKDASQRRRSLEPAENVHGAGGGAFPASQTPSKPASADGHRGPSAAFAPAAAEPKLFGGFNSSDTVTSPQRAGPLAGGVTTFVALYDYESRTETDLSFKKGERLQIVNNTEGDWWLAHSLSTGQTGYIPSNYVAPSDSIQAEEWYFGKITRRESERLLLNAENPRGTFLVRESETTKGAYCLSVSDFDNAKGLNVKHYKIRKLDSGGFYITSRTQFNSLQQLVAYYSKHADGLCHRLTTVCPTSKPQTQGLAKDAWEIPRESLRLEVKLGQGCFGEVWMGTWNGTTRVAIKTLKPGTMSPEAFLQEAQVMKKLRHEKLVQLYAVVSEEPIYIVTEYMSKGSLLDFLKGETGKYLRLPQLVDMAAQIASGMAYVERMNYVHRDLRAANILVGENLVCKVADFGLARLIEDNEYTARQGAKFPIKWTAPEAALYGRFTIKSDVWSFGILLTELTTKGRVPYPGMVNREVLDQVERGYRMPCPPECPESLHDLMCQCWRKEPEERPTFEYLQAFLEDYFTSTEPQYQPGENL
T1 sequence (Q06187 whole entry): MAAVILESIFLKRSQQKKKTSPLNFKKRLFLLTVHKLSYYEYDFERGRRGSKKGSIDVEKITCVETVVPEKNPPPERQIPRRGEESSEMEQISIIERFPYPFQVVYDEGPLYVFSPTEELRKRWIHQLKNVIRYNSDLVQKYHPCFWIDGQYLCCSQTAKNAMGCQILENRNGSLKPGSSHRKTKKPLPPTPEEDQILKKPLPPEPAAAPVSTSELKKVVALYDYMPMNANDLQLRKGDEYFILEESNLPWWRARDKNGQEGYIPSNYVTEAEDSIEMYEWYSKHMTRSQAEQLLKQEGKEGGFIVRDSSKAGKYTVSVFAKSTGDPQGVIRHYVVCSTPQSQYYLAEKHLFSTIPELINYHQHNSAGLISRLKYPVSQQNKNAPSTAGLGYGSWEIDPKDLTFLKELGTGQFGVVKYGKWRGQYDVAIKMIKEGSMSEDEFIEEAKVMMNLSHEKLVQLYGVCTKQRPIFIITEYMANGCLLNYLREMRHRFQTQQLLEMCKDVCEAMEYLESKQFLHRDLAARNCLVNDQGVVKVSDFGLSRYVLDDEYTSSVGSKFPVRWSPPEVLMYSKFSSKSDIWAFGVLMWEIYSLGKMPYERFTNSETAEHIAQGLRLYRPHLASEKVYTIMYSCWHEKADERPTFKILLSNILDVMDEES

In the case of `Cc1cc(Nc2nc(N3C[C@H](NC(=O)c4ccc(C5CC5)cc4F)CC[C@@H]3C)cnc2C(N)=O)sn1` [Example D-181, 5-[(2S,5R)-5-(4-cyclopropyl-2-fluorobenzamido)-2-methylpiperidin-1-yl]-3-[(3-methyl-1,2-thiazol-5-yl)amino]pyrazine-2-carboxamide], the half-maximal inhibitory concentration (IC50) on BTK-WT was ≤ 10 nM; against EGFR, 100 to 1000 nM; on JAK3 it was 100 to 1000 nM; on SRC it was 10 to 100 nM.

In the case of `COc1cc(C(=O)N[C@@H]2CCCN(c3cnc(C(N)=O)c(Nc4cnn(C)c4)n3)[C@@H]2C)ccc1C1CC1` [Example D-231, 5-[(2R,3R)-3-(4-cyclopropyl-3-methoxybenzamido)-2-methylpiperidin-1-yl]-3-[(1-methyl-1H-pyrazol-4-yl)amino]pyrazine-2-carboxamide], the IC50 was ≤ 10 nM on BTK-WT, 1000 to 10000 nM on EGFR, > 10000 nM on JAK3 and 10 to 100 nM against SRC.

In the case of `CN1CCN(c2ccc(Nc3cc(N4CCC[C@@H](n5ccc6cc(C7CC7)ccc6c5=O)C4)cnc3C(N)=O)cc2)CC1` [Example D-178, 5-[(3R)-3-(6-cyclopropyl-1-oxo-1,2-dihydroisoquinolin-2-yl)piperidin-1-yl]-3-{[4-(4-methylpiperazin-1-yl)phenyl]amino}pyridine-2-carboxamide], the IC50 on BTK-WT is 10 to 100 nM; on EGFR, > 10000 nM; on JAK3 it was > 10000 nM; against SRC it was 1000 to 10000 nM.

On to `C[C@@H]1[C@H](NC(=O)c2ccc(C3(C)COC3)cc2)CCCN1c1cnc(C(N)=O)c(Nc2cnn(C)c2)n1` [Example D-228, 3-[(1-methyl-1H-pyrazol-4-yl)amino]-5-[(2R,3R)-2-methyl-3-[4-(3-methyloxetan-3-yl)benzamido]piperidin-1-yl]pyrazine-2-carboxamide], for which the half-inhibitory concentration (IC50) on BTK-WT is ≤ 10 nM; on EGFR, 1000 to 10000 nM; at JAK3, 1000 to 10000 nM; against SRC it was 10 to 100 nM.

For `Cc1nc2cc(C(=O)N[C@@H]3CCCN(c4cnc(C(N)=O)c(Nc5cnn(C)c5)n4)[C@@H]3C)ccc2o1` [Example D-238, N-[(2R,3R)-1-{5-carbamoyl-6-[(1-methyl-1H-pyrazol-4-yl)amino]pyrazin-2-yl}-2-methylpiperidin-3-yl]-2-methyl-1,3-benzoxazole-5-carboxamide], the IC50 at BTK-WT was ≤ 10 nM; against EGFR, 100 to 1000 nM; at JAK3 it was 100 to 1000 nM; at SRC, 10 to 100 nM.

Regarding `C[C@@H]1[C@H](NC(=O)c2ccc(C3CC3)cc2Cl)CCCN1c1cnc(C(N)=O)c(Nc2ccc(N3CCN(C)CC3)cc2)n1` [Example D-16, 5-[(2R,3R)-3-(2-chloro-4-cyclopropylbenzamido)-2-methylpiperidin-1-yl]-3-{[4-(4-methylpiperazin-1-yl)phenyl]amino}pyrazine-2-carboxamide], the IC50 is ≤ 10 nM at BTK-WT, 100 to 1000 nM on EGFR, 1000 to 10000 nM at JAK3 and 100 to 1000 nM on SRC.

As for `C[C@@H]1[C@H](NC(=O)c2cnc(C3CC3)cn2)CCCN1c1cnc(C(N)=O)c(Nc2cnn(C)c2)n1` [Example D-205, 5-[(2R,3R)-3-(5-cyclopropylpyrazine-2-amido)-2-methylpiperidin-1-yl]-3-[(1-methyl-1H-pyrazol-4-yl)amino]pyrazine-2-carboxamide], the IC50 was ≤ 10 nM on BTK-WT, 100 to 1000 nM on EGFR, 1000 to 10000 nM at JAK3 and 10 to 100 nM against SRC.

For the compound `C[C@@H]1[C@H](NC(=O)c2ccc(C3CC3)c(Cl)c2)CCCN1c1cnc(C(N)=O)c(Nc2ccc(N3CCN(C)CC3)cc2)n1` [Example D-17, 5-[(2R,3R)-3-(3-chloro-4-cyclopropylbenzamido)-2-methylpiperidin-1-yl]-3-{[4-(4-methylpiperazin-1-yl)phenyl]amino}pyrazine-2-carboxamide], the IC50 on BTK-WT is ≤ 10 nM; at EGFR it was 1000 to 10000 nM; at JAK3, 1000 to 10000 nM; on SRC it was 100 to 1000 nM.

As to `C[C@@H]1[C@H](NC(=O)c2ccc(C3CC3)cc2F)CCCN1c1cnc(C(N)=O)c(Nc2ccc(N3CCN(C)C[C@@H]3C)cc2)n1` [Example D-12, 5-[(2R,3R)-3-(4-cyclopropyl-2-fluorobenzamido)-2-methylpiperidin-1-yl]-3-({4-[(2S)-2,4-dimethylpiperazin-1-yl]phenyl}amino)pyrazine-2-carboxamide], the IC50 at BTK-WT is ≤ 10 nM; on EGFR it was 100 to 1000 nM; at JAK3 it was 100 to 1000 nM; at SRC, 100 to 1000 nM.

As to `CCN(CC)c1ccc(C(=O)N[C@@H]2CCCN(c3cnc(C(N)=O)c(Nc4cnn(C)c4)n3)[C@@H]2C)cc1` [Example D-218, 5-[(2R,3R)-3-[4-(diethylamino)benzamido]-2-methylpiperidin-1-yl]-3-[(1-methyl-1H-pyrazol-4-yl)amino]pyrazine-2-carboxamide], the IC50 at BTK-WT was ≤ 10 nM; against EGFR, 1000 to 10000 nM; at JAK3, 1000 to 10000 nM; against SRC, 10 to 100 nM.

For `C[C@@H]1[C@H](NC(=O)c2ccc(C3CC3)cn2)CCCN1c1cnc(C(N)=O)c(Nc2ccc(N3CCN(C)CC3)cc2)n1` [Example D-188, 5-[(2R,3R)-3-(5-cyclopropylpyridine-2-amido)-2-methylpiperidin-1-yl]-3-{[4-(4-methylpiperazin-1-yl)phenyl]amino}pyrazine-2-carboxamide], the IC50 was ≤ 10 nM on BTK-WT, 100 to 1000 nM against EGFR, 1000 to 10000 nM at JAK3 and 10 to 100 nM against SRC.

As to `C[C@@H]1[C@H](NC(=O)c2ccc(SC(F)(F)F)cc2)CCCN1c1cnc(C(N)=O)c(Nc2ccc(N3CCN(C)CC3)cc2)n1` [Example D-233, 5-[(2R,3R)-2-methyl-3-{4-[(trifluoromethyl)sulfanyl]benzamido}piperidin-1-yl]-3-{[4-(4-methylpiperazin-1-yl)phenyl]amino}pyrazine-2-carboxamide], the IC50 was ≤ 10 nM at BTK-WT, 100 to 1000 nM against EGFR, 1000 to 10000 nM at JAK3 and 10 to 100 nM against SRC.

For `C[C@@H]1[C@H](NC(=O)c2ccc(SC(F)(F)F)cc2)CCCN1c1cnc(C(N)=O)c(Nc2cnn(C)c2)n1` [Example D-241, 3-[(1-methyl-1H-pyrazol-4-yl)amino]-5-[(2R,3R)-2-methyl-3-{4-[(trifluoromethyl)sulfanyl]benzamido}piperidin-1-yl]pyrazine-2-carboxamide], the IC50 on BTK-WT is ≤ 10 nM; at EGFR, 100 to 1000 nM; at JAK3 it was 1000 to 10000 nM; at SRC, 10 to 100 nM.

As to `C[C@@H]1[C@H](NC(=O)c2ccc(C3CC3)cc2)CCCN1c1cnc(C(N)=O)c(Nc2cnn(C)c2)c1` [Example D-207, 5-[(2R,3R)-3-(4-cyclopropylbenzamido)-2-methylpiperidin-1-yl]-3-[(1-methyl-1H-pyrazol-4-yl)amino]pyridine-2-carboxamide], the IC50 is ≤ 10 nM on BTK-WT, > 10000 nM on EGFR, 100 to 1000 nM on JAK3 and 100 to 1000 nM at SRC.

Consider `Cn1cc(Nc2nc(N3CC(NC(=O)c4ccc(C5CC5)cc4)CC(F)(F)C3)cnc2C(N)=O)cn1` (stereo in doubt) [Example D-190, 5-[(5S)-5-(4-cyclopropylbenzamido)-3,3-difluoropiperidin-1-yl]-3-[(1-methyl-1H-pyrazol-4-yl)amino]pyrazine-2-carboxamide], for which the IC50 at BTK-WT was ≤ 10 nM; on EGFR, 1000 to 10000 nM; on JAK3, 1000 to 10000 nM; against SRC, 100 to 1000 nM.

On to `CC1(c2ccc(Nc3nc(N4CCC[C@@H](n5ccc6cc(C7CC7)ccc6c5=O)C4)cnc3C(N)=O)cc2)CCN(C2CCCC2)CC1` [Example D-177, 3-{[4-(1-cyclopentyl-4-methylpiperidin-4-yl)phenyl]amino}-5-[(3R)-3-(6-cyclopropyl-1-oxo-1,2-dihydroisoquinolin-2-yl)piperidin-1-yl]pyrazine-2-carboxamide], for which the IC50 was ≤ 10 nM on BTK-WT, 100 to 1000 nM against EGFR, 100 to 1000 nM on JAK3 and 10 to 100 nM at SRC.

As usually defined, the IC50 is the midpoint of a concentration-inhibition curve.
